According to ChEMBL document CHEMBL1833862, “Synthesis and biological evaluation of novel 2-arylamino-3-(arylsulfonyl)quinoxalines as PI3Kα inhibitors” (Eur J Med Chem, 2011):
Activity calls are given as the source filed them. The rule behind the calls is not given here.

system: A549; assay: Cytotoxicity against human A549 cells after 72 hrs by MTT assay; assay type: functional, cell-based; conditions: A549, 72 h

| SMILES | IC50 [µM] |
| --- | --- |
| O=S(=O)(c1ccc(Br)cc1)c1nc2ccccc2nc1Nc1cccc(O)c1 | 8 |
| COc1cc(Nc2nc3ccccc3nc2S(=O)(=O)c2ccccc2)cc(OC)c1OC | 9.66 |
| COc1ccc(S(=O)(=O)c2nc3ccccc3nc2Nc2ccc(F)cc2)cc1 | 1.24 |
| Nc1ccc(Nc2nc3ccccc3nc2S(=O)(=O)c2ccccc2)cc1 | 12.8 |
| COc1ccc(S(=O)(=O)c2nc3ccccc3nc2Nc2ccccc2)cc1 | 13.2 |
| COc1cc(Nc2nc3ccccc3nc2S(=O)(=O)c2ccc(C)cc2)cc(OC)c1 | 8.06 |
| COc1ccc(S(=O)(=O)c2nc3ccccc3nc2Nc2cccc(N)c2)cc1 | 0.34 |
| Cc1ccc(S(=O)(=O)c2nc3ccccc3nc2Nc2cccc(O)c2)cc1 | 6.08 |
| COc1ccc(S(=O)(=O)c2nc3ccccc3nc2Nc2cc(OC)c(OC)c(OC)c2)cc1 | 5.17 |
| Nc1ccc(Nc2nc3ccccc3nc2S(=O)(=O)c2ccc(Br)cc2)cc1 | 1.02 |
| COc1ccc(Nc2nc3ccccc3nc2S(=O)(=O)c2ccc(F)cc2)cc1 | 4.84 |
| COc1ccc(S(=O)(=O)c2nc3ccccc3nc2Nc2ccc(N)cc2)cc1 | 2.99 |
| COc1ccc(Nc2nc3ccccc3nc2S(=O)(=O)c2ccc(OC)cc2)cc1 | 8.26 |
| COc1cc(Nc2nc3ccccc3nc2S(=O)(=O)c2ccc(F)cc2)cc(OC)c1 | 5.45 |
| Cc1ccc(S(=O)(=O)c2nc3ccccc3nc2Nc2ccccc2)cc1 | 12.5 |
| O=c1cc(N2CCOCC2)oc2c(-c3ccccc3)cccc12 [LY-294002] | 89.7 |
| Cc1ccc(S(=O)(=O)c2nc3ccccc3nc2Nc2ccc(F)cc2)cc1 | 39.2 |
| Nc1cccc(Nc2nc3ccccc3nc2S(=O)(=O)c2ccc(Br)cc2)c1 | 1.12 |
| COc1cc(Nc2nc3ccccc3nc2S(=O)(=O)c2ccc(Br)cc2)cc(OC)c1 | 15.8 |
| O=S(=O)(c1ccc(Br)cc1)c1nc2ccccc2nc1Nc1ccc(C(F)(F)F)cc1 | > 50 |
| O=S(=O)(c1ccccc1)c1nc2ccccc2nc1Nc1ccccc1 | 26.3 |
| Nc1cccc(Nc2nc3ccccc3nc2S(=O)(=O)c2ccc(F)cc2)c1 | 6.84 |
| O=S(=O)(c1ccccc1)c1nc2ccccc2nc1Nc1ccc(Cl)cc1 | 30.7 |

target: T1, Phosphatidylinositol 4,5-bisphosphate 3-kinase catalytic subunit alpha isoform (Homo sapiens, UniProt P42336); assay: Inhibition of human recombinant PI3Kalpha assessed as production of 3,4,5-inositoltriphosphate after 3 hrs by fluorescence polarization assay; conditions: not given
T1 sequence (P42336 whole entry, canonical isoform): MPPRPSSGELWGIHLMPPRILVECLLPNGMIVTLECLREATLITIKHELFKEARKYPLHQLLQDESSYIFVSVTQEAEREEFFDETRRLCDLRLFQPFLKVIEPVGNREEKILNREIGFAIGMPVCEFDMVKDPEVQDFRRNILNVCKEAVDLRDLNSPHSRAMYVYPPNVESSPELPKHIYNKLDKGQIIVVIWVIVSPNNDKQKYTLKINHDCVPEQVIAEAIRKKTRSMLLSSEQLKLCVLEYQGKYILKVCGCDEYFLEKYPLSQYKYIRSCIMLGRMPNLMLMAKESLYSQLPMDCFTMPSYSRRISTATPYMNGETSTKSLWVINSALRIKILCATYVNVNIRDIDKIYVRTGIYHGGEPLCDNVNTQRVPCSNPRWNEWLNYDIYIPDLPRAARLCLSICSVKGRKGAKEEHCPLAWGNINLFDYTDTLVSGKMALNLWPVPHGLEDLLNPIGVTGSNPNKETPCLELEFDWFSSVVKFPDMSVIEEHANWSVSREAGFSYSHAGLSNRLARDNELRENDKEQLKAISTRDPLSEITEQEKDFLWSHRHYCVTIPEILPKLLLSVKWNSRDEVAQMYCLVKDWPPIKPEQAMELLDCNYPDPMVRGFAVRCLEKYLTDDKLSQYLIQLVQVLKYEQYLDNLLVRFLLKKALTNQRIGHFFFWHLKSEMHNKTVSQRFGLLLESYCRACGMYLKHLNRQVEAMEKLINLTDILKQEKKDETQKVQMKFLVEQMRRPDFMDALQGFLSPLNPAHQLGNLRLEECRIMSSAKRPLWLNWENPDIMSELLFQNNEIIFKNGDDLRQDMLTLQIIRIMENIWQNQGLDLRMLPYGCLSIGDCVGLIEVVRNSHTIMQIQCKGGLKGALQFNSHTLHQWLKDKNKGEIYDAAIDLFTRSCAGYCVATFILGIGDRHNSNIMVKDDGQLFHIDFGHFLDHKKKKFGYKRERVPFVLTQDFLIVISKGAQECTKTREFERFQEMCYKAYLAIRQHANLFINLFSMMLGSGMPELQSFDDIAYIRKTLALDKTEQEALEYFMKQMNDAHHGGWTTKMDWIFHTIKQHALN

| IC50 [µM] | SMILES |
| --- | --- |
| 0.47 | O=S(=O)(c1ccc(Br)cc1)c1nc2ccccc2nc1Nc1cccc(O)c1 |
| > 1 | Cc1ccc(S(=O)(=O)c2nc3ccccc3nc2Nc2cccc(O)c2)cc1 |

system: HL-60; assay: Cytotoxicity against human HL60 cells after 72 hrs by MTT assay; assay type: functional, cell-based; conditions: HL-60, 72 h

| SMILES | IC50 [µM] |
| --- | --- |
| O=S(=O)(c1ccc(Br)cc1)c1nc2ccccc2nc1Nc1cccc(O)c1 | 0.2 |
| COc1cc(Nc2nc3ccccc3nc2S(=O)(=O)c2ccccc2)cc(OC)c1OC | 1.77 |
| COc1ccc(S(=O)(=O)c2nc3ccccc3nc2Nc2ccc(F)cc2)cc1 | 0.61 |
| Nc1ccc(Nc2nc3ccccc3nc2S(=O)(=O)c2ccccc2)cc1 | 8.72 |
| COc1ccc(S(=O)(=O)c2nc3ccccc3nc2Nc2ccccc2)cc1 | 0.26 |
| COc1cc(Nc2nc3ccccc3nc2S(=O)(=O)c2ccc(C)cc2)cc(OC)c1 | 0.02 |
| COc1ccc(S(=O)(=O)c2nc3ccccc3nc2Nc2cccc(N)c2)cc1 | 1.49 |
| Cc1ccc(S(=O)(=O)c2nc3ccccc3nc2Nc2cccc(O)c2)cc1 | 0.4 |
| COc1ccc(S(=O)(=O)c2nc3ccccc3nc2Nc2cc(OC)c(OC)c(OC)c2)cc1 | 0.68 |
| Nc1ccc(Nc2nc3ccccc3nc2S(=O)(=O)c2ccc(Br)cc2)cc1 | 0.73 |
| COc1ccc(Nc2nc3ccccc3nc2S(=O)(=O)c2ccc(F)cc2)cc1 | 1.2 |
| COc1ccc(S(=O)(=O)c2nc3ccccc3nc2Nc2ccc(N)cc2)cc1 | 0.71 |
| COc1ccc(Nc2nc3ccccc3nc2S(=O)(=O)c2ccc(OC)cc2)cc1 | 1.19 |
| COc1cc(Nc2nc3ccccc3nc2S(=O)(=O)c2ccc(F)cc2)cc(OC)c1 | 2.36 |
| Cc1ccc(S(=O)(=O)c2nc3ccccc3nc2Nc2ccccc2)cc1 | 0.4 |
| O=c1cc(N2CCOCC2)oc2c(-c3ccccc3)cccc12 [LY-294002] | 9.94 |
| Cc1ccc(S(=O)(=O)c2nc3ccccc3nc2Nc2ccc(F)cc2)cc1 | 5.1 |
| Nc1cccc(Nc2nc3ccccc3nc2S(=O)(=O)c2ccc(Br)cc2)c1 | 1.37 |
| COc1cc(Nc2nc3ccccc3nc2S(=O)(=O)c2ccc(Br)cc2)cc(OC)c1 | 2.54 |
| O=S(=O)(c1ccc(Br)cc1)c1nc2ccccc2nc1Nc1ccc(C(F)(F)F)cc1 | 0.28 |
| O=S(=O)(c1ccccc1)c1nc2ccccc2nc1Nc1ccccc1 | 0.14 |
| Nc1cccc(Nc2nc3ccccc3nc2S(=O)(=O)c2ccc(F)cc2)c1 | 4.04 |
| O=S(=O)(c1ccccc1)c1nc2ccccc2nc1Nc1ccc(Cl)cc1 | 1.92 |

system: HCT-116; assay: cells; conditions: Homo sapiens, HCT-116, 72 h

| IC50 [µM] | SMILES |
| --- | --- |
| 0.54 | O=S(=O)(c1ccc(Br)cc1)c1nc2ccccc2nc1Nc1cccc(O)c1 |
| 2.11 | COc1ccc(S(=O)(=O)c2nc3ccccc3nc2Nc2ccc(F)cc2)cc1 |
| 1.26 | COc1ccc(S(=O)(=O)c2nc3ccccc3nc2Nc2ccccc2)cc1 |
| 3.71 | COc1ccc(S(=O)(=O)c2nc3ccccc3nc2Nc2cccc(N)c2)cc1 |
| 3.81 | Cc1ccc(S(=O)(=O)c2nc3ccccc3nc2Nc2cccc(O)c2)cc1 |
| 3.01 | COc1ccc(Nc2nc3ccccc3nc2S(=O)(=O)c2ccc(F)cc2)cc1 |
| 6.3 | COc1ccc(S(=O)(=O)c2nc3ccccc3nc2Nc2ccc(N)cc2)cc1 |
| 29.1 | COc1ccc(Nc2nc3ccccc3nc2S(=O)(=O)c2ccc(OC)cc2)cc1 |
| 3.28 | Nc1cccc(Nc2nc3ccccc3nc2S(=O)(=O)c2ccc(Br)cc2)c1 |
| 6.79 | Nc1cccc(Nc2nc3ccccc3nc2S(=O)(=O)c2ccc(F)cc2)c1 |

The remaining lines, values behind:

| SMILES | IC50 [µM] |
| --- | --- |
| COc1cc(Nc2nc3ccccc3nc2S(=O)(=O)c2ccccc2)cc(OC)c1OC | > 50 |
| Nc1ccc(Nc2nc3ccccc3nc2S(=O)(=O)c2ccccc2)cc1 | 10.8 |
| COc1cc(Nc2nc3ccccc3nc2S(=O)(=O)c2ccc(C)cc2)cc(OC)c1 | > 50 |
| COc1ccc(S(=O)(=O)c2nc3ccccc3nc2Nc2cc(OC)c(OC)c(OC)c2)cc1 | > 50 |
| Nc1ccc(Nc2nc3ccccc3nc2S(=O)(=O)c2ccc(Br)cc2)cc1 | 1.39 |
| COc1cc(Nc2nc3ccccc3nc2S(=O)(=O)c2ccc(F)cc2)cc(OC)c1 | 3.93 |
| Cc1ccc(S(=O)(=O)c2nc3ccccc3nc2Nc2ccccc2)cc1 | 1.07 |
| O=c1cc(N2CCOCC2)oc2c(-c3ccccc3)cccc12 [LY-294002] | 56 |
| Cc1ccc(S(=O)(=O)c2nc3ccccc3nc2Nc2ccc(F)cc2)cc1 | 10.5 |
| COc1cc(Nc2nc3ccccc3nc2S(=O)(=O)c2ccc(Br)cc2)cc(OC)c1 | > 50 |
| O=S(=O)(c1ccc(Br)cc1)c1nc2ccccc2nc1Nc1ccc(C(F)(F)F)cc1 | 2.61 |
| O=S(=O)(c1ccccc1)c1nc2ccccc2nc1Nc1ccccc1 | 1.63 |
| O=S(=O)(c1ccccc1)c1nc2ccccc2nc1Nc1ccc(Cl)cc1 | 2 |

system: KB; assay: Cytotoxicity against human KB cells after 72 hrs by MTT assay; assay type: functional, cell-based; conditions: not given

| SMILES | IC50 [µM] |
| --- | --- |
| O=S(=O)(c1ccc(Br)cc1)c1nc2ccccc2nc1Nc1cccc(O)c1 | 8.41 |
| COc1ccc(S(=O)(=O)c2nc3ccccc3nc2Nc2ccc(F)cc2)cc1 | 2.59 |
| Nc1ccc(Nc2nc3ccccc3nc2S(=O)(=O)c2ccccc2)cc1 | 3.4 |
| COc1ccc(S(=O)(=O)c2nc3ccccc3nc2Nc2ccccc2)cc1 | 9.89 |
| COc1ccc(S(=O)(=O)c2nc3ccccc3nc2Nc2cccc(N)c2)cc1 | 4.96 |
| Cc1ccc(S(=O)(=O)c2nc3ccccc3nc2Nc2cccc(O)c2)cc1 | 5.35 |
| Nc1ccc(Nc2nc3ccccc3nc2S(=O)(=O)c2ccc(Br)cc2)cc1 | 4.08 |
| COc1ccc(S(=O)(=O)c2nc3ccccc3nc2Nc2ccc(N)cc2)cc1 | 17.8 |
| Cc1ccc(S(=O)(=O)c2nc3ccccc3nc2Nc2ccccc2)cc1 | 19 |
| O=c1cc(N2CCOCC2)oc2c(-c3ccccc3)cccc12 [LY-294002] | 44.8 |
| Cc1ccc(S(=O)(=O)c2nc3ccccc3nc2Nc2ccc(F)cc2)cc1 | 8.95 |
| Nc1cccc(Nc2nc3ccccc3nc2S(=O)(=O)c2ccc(Br)cc2)c1 | 5.34 |
| O=S(=O)(c1ccc(Br)cc1)c1nc2ccccc2nc1Nc1ccc(C(F)(F)F)cc1 | > 50 |
| O=S(=O)(c1ccccc1)c1nc2ccccc2nc1Nc1ccccc1 | 22.6 |
| O=S(=O)(c1ccccc1)c1nc2ccccc2nc1Nc1ccc(Cl)cc1 | 41.2 |

system: PC-3; assay: cells; conditions: Homo sapiens, PC-3, 72 h
Description: Cytotoxicity against human PC3 cells after 72 hrs by MTT assay

| IC50 [µM] | SMILES |
| --- | --- |
| 1.7 | O=S(=O)(c1ccc(Br)cc1)c1nc2ccccc2nc1Nc1cccc(O)c1 |
| 2.2 | COc1ccc(S(=O)(=O)c2nc3ccccc3nc2Nc2ccc(F)cc2)cc1 |
| 1.26 | COc1ccc(S(=O)(=O)c2nc3ccccc3nc2Nc2ccccc2)cc1 |
| 8.6 | COc1ccc(S(=O)(=O)c2nc3ccccc3nc2Nc2cccc(N)c2)cc1 |
| 1.69 | Cc1ccc(S(=O)(=O)c2nc3ccccc3nc2Nc2cccc(O)c2)cc1 |
| 4.33 | COc1ccc(Nc2nc3ccccc3nc2S(=O)(=O)c2ccc(F)cc2)cc1 |
| 9.64 | COc1ccc(S(=O)(=O)c2nc3ccccc3nc2Nc2ccc(N)cc2)cc1 |
| 8.71 | COc1ccc(Nc2nc3ccccc3nc2S(=O)(=O)c2ccc(OC)cc2)cc1 |
| 9.01 | Nc1cccc(Nc2nc3ccccc3nc2S(=O)(=O)c2ccc(Br)cc2)c1 |
| 1.98 | Nc1cccc(Nc2nc3ccccc3nc2S(=O)(=O)c2ccc(F)cc2)c1 |

Second part, the molecule before the results:

| SMILES | IC50 [µM] |
| --- | --- |
| COc1cc(Nc2nc3ccccc3nc2S(=O)(=O)c2ccccc2)cc(OC)c1OC | 29.1 |
| Nc1ccc(Nc2nc3ccccc3nc2S(=O)(=O)c2ccccc2)cc1 | 5.83 |
| COc1cc(Nc2nc3ccccc3nc2S(=O)(=O)c2ccc(C)cc2)cc(OC)c1 | 2.94 |
| COc1ccc(S(=O)(=O)c2nc3ccccc3nc2Nc2cc(OC)c(OC)c(OC)c2)cc1 | 7.85 |
| Nc1ccc(Nc2nc3ccccc3nc2S(=O)(=O)c2ccc(Br)cc2)cc1 | 2.33 |
| COc1cc(Nc2nc3ccccc3nc2S(=O)(=O)c2ccc(F)cc2)cc(OC)c1 | 4.53 |
| Cc1ccc(S(=O)(=O)c2nc3ccccc3nc2Nc2ccccc2)cc1 | 1.06 |
| O=c1cc(N2CCOCC2)oc2c(-c3ccccc3)cccc12 [LY-294002] | 61.4 |
| Cc1ccc(S(=O)(=O)c2nc3ccccc3nc2Nc2ccc(F)cc2)cc1 | 13.1 |
| COc1cc(Nc2nc3ccccc3nc2S(=O)(=O)c2ccc(Br)cc2)cc(OC)c1 | 18.2 |
| O=S(=O)(c1ccc(Br)cc1)c1nc2ccccc2nc1Nc1ccc(C(F)(F)F)cc1 | 4.15 |
| O=S(=O)(c1ccccc1)c1nc2ccccc2nc1Nc1ccccc1 | 0.59 |
| O=S(=O)(c1ccccc1)c1nc2ccccc2nc1Nc1ccc(Cl)cc1 | 15.3 |

target: T1, Phosphatidylinositol 4,5-bisphosphate 3-kinase catalytic subunit alpha isoform; assay: Inhibition of PI3K in human PC3 cells assessed as suppression of Akt Ser473 phosphorylation at 10 uM after 3 hrs by SDS-PAGE and Western blot analysis; assay type: cell-based; conditions: PC-3

| inhibition | SMILES |
| --- | --- |
| Active | COc1cc(Nc2nc3ccccc3nc2S(=O)(=O)c2ccc(C)cc2)cc(OC)c1 |
| Active | Nc1ccc(Nc2nc3ccccc3nc2S(=O)(=O)c2ccc(Br)cc2)cc1 |
